The values below come from article PMC5382172 (Frontiers in Molecular Neuroscience, 2017).

Structures are written as SMILES. Where “and” joins values, the source holds several entries; their conditions need not be identical. Equal values may be shown once.

Common to all, as to format: cell-based
Test [1] concerns the target T1, GluClαWT (GLC-1) homomeric receptor (Caenorhabditis elegans, UniProt G5EBR3).
T1 construct: entry codes of the full-length subunits used in this study; expressed in transfected cells; host or cells: CHO cells, transient transfection, pcDNA3.1
T1 sequence (G5EBR3 21-461): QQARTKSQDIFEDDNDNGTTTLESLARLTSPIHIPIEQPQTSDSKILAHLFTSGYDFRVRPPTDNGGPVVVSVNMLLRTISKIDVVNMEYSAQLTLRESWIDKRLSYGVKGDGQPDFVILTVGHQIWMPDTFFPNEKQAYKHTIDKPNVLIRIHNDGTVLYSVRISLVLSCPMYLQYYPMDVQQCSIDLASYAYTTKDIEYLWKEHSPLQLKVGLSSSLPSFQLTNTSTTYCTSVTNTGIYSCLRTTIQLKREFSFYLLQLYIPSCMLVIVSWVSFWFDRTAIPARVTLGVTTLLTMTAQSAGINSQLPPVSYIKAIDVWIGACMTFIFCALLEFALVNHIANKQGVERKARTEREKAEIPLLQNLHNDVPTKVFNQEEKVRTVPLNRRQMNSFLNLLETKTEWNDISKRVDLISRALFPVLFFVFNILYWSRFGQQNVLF
Description: Whole-cell patch clamp in CHO cells transfected with GluClαWT subunit alone. The note with it: αWT alone, 500 nM IVM, -60 mV.

A further test concerns the target T2, GluClαWT/βWT receptor (Caenorhabditis elegans, UniProt G5EBR3+Q17328).
T2 construct: entry codes of the full-length subunits used in this study; expressed in transfected cells; host or cells: CHO cells, transient co-transfection 1:1, pcDNA3.1
T2 sequence (G5EBR3 21-461): T1 sequence (G5EBR3 21-461)
T2 sequence (Q17328 23-434): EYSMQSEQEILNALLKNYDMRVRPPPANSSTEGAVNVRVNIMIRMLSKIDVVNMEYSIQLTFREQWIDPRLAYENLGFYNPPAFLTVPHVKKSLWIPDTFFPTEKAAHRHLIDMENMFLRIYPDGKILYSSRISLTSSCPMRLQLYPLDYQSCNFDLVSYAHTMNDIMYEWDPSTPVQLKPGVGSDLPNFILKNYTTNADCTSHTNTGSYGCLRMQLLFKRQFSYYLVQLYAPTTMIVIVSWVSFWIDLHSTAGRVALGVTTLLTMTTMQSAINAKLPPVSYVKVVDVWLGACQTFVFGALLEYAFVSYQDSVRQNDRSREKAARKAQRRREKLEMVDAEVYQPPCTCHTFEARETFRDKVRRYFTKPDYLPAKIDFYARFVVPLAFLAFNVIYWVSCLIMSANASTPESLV
The test is described as follows: Whole-cell patch clamp in CHO cells, GluClαWT/βWT receptor. As for the experimental part:
(§1) Chinese hamster ovary (CHO) cells were cultured as previously (Bar-Lev et al., [2011]) in Dulbecco’s Modified Eagle Medium (DMEM) containing 10% fetal calf serum, 2 mM glutamax, 100 Units/ml penicillin G and 100 μg/ml streptomycin, and grown in 5% CO2 at 37°C under 90%–95% humidity. The cells were seeded on glass coverslips (13-mm diameter) placed in a 24-multiwell plate. […] For the expression of GluCl receptors, cells were transiently co-transfected with pcDNA3.1 plasmids containing the ORFs of interest using transit-LT1 transfection reagent (Mirus, Madison, WI, USA), according to the manufacturer’s protocol. The cDNAs encoding the C. elegans GluClα (GLC-1) or its mutated versions and the GluClβ (GLC-2) subunits (200–600 ng per well) were used at 1:1 ratio. The pIRES-CD8 plasmid (200 ng per well) was added to enable the visualization of the expressing cells by beads coated with anti-CD8 antibodies (Invitrogen). For high-level expression of the GluClαF276A/βWT mutant receptor in experiments assigned to determine its IVM-EC50, we used the X-tremeGENE HP DNA Transfection Reagent (Roche Life Science). Recordings were performed 72–96 h following the transfection.
Whole-cell patch clamp recordings were performed as described previously (Bar-Lev et al., [2011]) in CHO cells that were prepared as detailed above. The normal external solution (NES) contained (in millimolar): 140 NaCl, 2.8 KCl, 2 CaCl2, 2 MgCl2, 10 glucose and 10 HEPES, adjusted to pH 7.35 with NaOH (310 mOsm/L). The pipette solution contained (in millimolar): 130 KCl, 4 MgCl2, 4 Na2ATP, 1 EGTA and 10 HEPES, adjusted to pH 7.35 with KOH (290 mOsm/L). The osmolarity of these solutions was maintained by adding sucrose. The electrode resistance was 6–10 MΩ when filled with the pipette solution. External solutions were applied onto the cell by using the VC-77SP fast-step system (Warner Instruments, Hamden, CT, USA) combined with N2 pressure of 3–4 psi to produce laminar flow of the external solution onto the patched cell. All measurements were performed at room temperature. The currents were measured with an Axopatch 200B patch-clamp amplifier (Molecular Devices, Sunnyvale, CA, USA) and a Digidata 1440A interface (Molecular Devices). Acquisition of recording data was performed at 2.5 kHz and recordings were low-pass filtered at 1 kHz, through a four-pole Bessel filter. The pClamp 10 software (Molecular Devices) was used for data acquisition. […] Five-hundred milliseconds after the application started (which is also after the current reached to its peak at −60 mV), the voltage was stepped from −60 mV to −80 mV for 50 ms followed by a 250-ms-long voltage ramp ranging from −80 mV to +80 mV.
Dose-response curves were fitted to the data points by a nonlinear regression using the Hill Equation 1,
A general note: The patch-clamp technique gives a direct electrical read-out from membranes.

The next test has as its target T3, GluClαP192E/βWT receptor (Caenorhabditis elegans, UniProt G5EBR3+Q17328, P192E).
T3 construct: entry codes of the full-length subunits used in this study; expressed in transfected cells; host or cells: CHO cells, transient co-transfection 1:1, pcDNA3.1
Description: Whole-cell patch clamp in CHO cells, GluClαP192E/βWT receptor. Particulars: 500 nM IVM, -60 mV. As for the experimental part:
as §1, with “For high-level expression of the GluClαF276A/βWT mutant receptor in experiments assigned to determine its IVM-EC50, we used the X-tremeGENE HP DNA Transfection Reagent (Roche Life Science). Recordings were performed 72–96 h following the transfection.” left out
(§2) Whole-cell patch clamp recordings were performed as described previously (Bar-Lev et al., [2011]) in CHO cells that were prepared as detailed above. […] The currents were measured with an Axopatch 200B patch-clamp amplifier (Molecular Devices, Sunnyvale, CA, USA) and a Digidata 1440A interface (Molecular Devices). […]

In the next test the target is T4, GluClαP192M/βWT receptor (Caenorhabditis elegans, UniProt G5EBR3+Q17328, P192M).
T4 construct: entry codes of the full-length subunits used in this study; expressed in transfected cells; host or cells: CHO cells, transient co-transfection 1:1, pcDNA3.1
T4 sequence (G5EBR3 21-461 P192M, one chain of several): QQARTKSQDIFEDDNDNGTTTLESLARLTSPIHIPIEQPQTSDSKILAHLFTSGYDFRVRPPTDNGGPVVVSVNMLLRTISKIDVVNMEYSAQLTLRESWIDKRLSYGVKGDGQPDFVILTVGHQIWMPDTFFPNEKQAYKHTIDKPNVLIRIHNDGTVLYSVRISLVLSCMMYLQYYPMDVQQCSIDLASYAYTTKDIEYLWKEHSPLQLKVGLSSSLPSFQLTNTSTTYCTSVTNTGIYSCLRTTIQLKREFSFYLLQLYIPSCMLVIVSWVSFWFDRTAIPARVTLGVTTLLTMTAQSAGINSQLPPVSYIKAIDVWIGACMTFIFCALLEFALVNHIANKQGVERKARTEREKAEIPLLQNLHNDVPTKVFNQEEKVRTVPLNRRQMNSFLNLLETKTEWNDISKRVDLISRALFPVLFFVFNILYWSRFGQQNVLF
The test is described as follows: Whole-cell patch clamp in CHO cells, GluClαP192M/βWT receptor. The note with it: 500 nM IVM, -60 mV. The protocol:
as §1, with “For high-level expression of the GluClαF276A/βWT mutant receptor in experiments assigned to determine its IVM-EC50, we used the X-tremeGENE HP DNA Transfection Reagent (Roche Life Science). Recordings were performed 72–96 h following the transfection.” left out
as §2

A further test concerns the target T5, GluClαP192Y/βWT receptor (Caenorhabditis elegans, UniProt G5EBR3+Q17328, P192Y).
T5 construct: entry codes of the full-length subunits used in this study; expressed in transfected cells; host or cells: CHO cells, transient co-transfection 1:1, pcDNA3.1
The test is described as follows: Whole-cell patch clamp in CHO cells, GluClαP192Y/βWT receptor. Particulars: 500 nM IVM, -60 mV. The protocol:
as §1, with “For high-level expression of the GluClαF276A/βWT mutant receptor in experiments assigned to determine its IVM-EC50, we used the X-tremeGENE HP DNA Transfection Reagent (Roche Life Science). Recordings were performed 72–96 h following the transfection.” left out
as §2

The target of the next test is T6, GluClαY194R/βWT receptor (Caenorhabditis elegans, UniProt G5EBR3+Q17328, Y194R).
T6 construct: entry codes of the full-length subunits used in this study; expressed in transfected cells; host or cells: CHO cells, transient co-transfection 1:1, pcDNA3.1
T6 sequence (G5EBR3 21-461 Y194R, one chain of several): as the sequence (G5EBR3 21-461 P192M, one chain of several) above, with M172P, Y174R counted along it
The test is described as follows: Whole-cell patch clamp in CHO cells, GluClαY194R/βWT receptor. Particulars: 500 nM IVM, -60 mV. As for the experimental part:
as §1, with “For high-level expression of the GluClαF276A/βWT mutant receptor in experiments assigned to determine its IVM-EC50, we used the X-tremeGENE HP DNA Transfection Reagent (Roche Life Science). Recordings were performed 72–96 h following the transfection.” left out
as §2

The target of test [2] is T7, GluClα[SSS→GSD]/βWT receptor (Caenorhabditis elegans, UniProt G5EBR3+Q17328, S236G/S238D).
T7 construct: entry codes of the full-length subunits used in this study; expressed in transfected cells; host or cells: CHO cells, transient co-transfection 1:1, pcDNA3.1
T7 sequence (G5EBR3 21-461 S236G/S238D, one chain of several): as the sequence (G5EBR3 21-461 P192M, one chain of several) above, with M172P, S216G, S218D counted along it
Description: Whole-cell patch clamp in CHO cells, GluClα[SSS→GSD]/βWT receptor. The note with it: 500 nM IVM, -60 mV. As for the experimental part: as §1, with “For high-level expression of the GluClαF276A/βWT mutant receptor in experiments assigned to determine its IVM-EC50, we used the X-tremeGENE HP DNA Transfection Reagent (Roche Life Science). Recordings were performed 72–96 h following the transfection.” left out
as §2

The mark [3] stands for this setting: cumulative IVM concentrations, -60 mV.

T3 sequence (G5EBR3 21-461 P192E, one chain of several): as the sequence (G5EBR3 21-461 P192M, one chain of several) above, with M172E counted along it
T5 sequence (G5EBR3 21-461 P192Y, one chain of several): as the sequence (G5EBR3 21-461 P192M, one chain of several) above, with M172Y counted along it

Regarding `CC[C@H](C)[C@H]1O[C@]2(CC[C@@H]1C)C[C@@H]1C[C@@H](C/C=C(\C)[C@@H](O[C@H]3C[C@H](OC)[C@@H](O[C@H]4C[C@H](OC)[C@@H](O)[C@H](C)O4)[C@H](C)O3)[C@@H](C)/C=C/C=C3\CO[C@@H]4[C@H](O)C(C)=C[C@@H](C(=O)O1)[C@]34O)O2` [IVM, ivermectin], the “IVM (500 nM) Amplitude” value in test [1] was 1.0 ± 0.3 (14) nA; on GluClαWT/βWT receptor (CHO cells, 500 nM IVM, -60 mV), 1.8 ± 0.1 nA; on GluClαP192E/βWT receptor, 1.7 ± 0.3 nA; on GluClαP192M/βWT receptor it was 1.4 ± 0.2 nA; on GluClαP192Y/βWT receptor, 1.2 ± 0.2 nA; on GluClαY194R/βWT receptor it was 2.1 ± 0.5 nA. For the same compound, in test [2], the “IVM (500 nM) Amplitude” value amounted to 1.8 ± 0.4 nA. For the same compound, the “Fold decrease in Glu-EC50 observed after pre-exposure to IVM” value on GluClαWT/βWT receptor (7 nM IVM) was ~ 5 fold and 5 fold. For the same compound, at GluClαWT/βWT receptor (0.3 mM Glu before and after exposure to 7 nM IVM), the “fold-potentiation of Glu-elicited response by IVM” value is ~ 6 fold and 5.9 ± 0.6 fold. Moreover, the midpoint of the response on GluClαWT/βWT receptor (setting [3]), the EC50, lay at 40 nM. The “Hill coefficient of activation by IVM” value at GluClαWT/βWT receptor (setting [3]) is 1.5 and 1.5 ± 0.2.
